Source: patent publication US20150105252A1, “SUBSTITUTED PYRAZOLES AS HERBICIDES” (E I DU PONT DE NEMOURS AND COMPANY, priority 2013, published 2015)

Tests used:
[1] = system: velvetleaf; assay: Test C postemergence; format: in vivo, Abutilon theophrasti; conditions: postemergence; for Velvetleaf plant response rating: 62 g ai/ha, scale 0 to 100
From the text: (§1) Seeds of plant species selected from blackgrass (Alopecurus myosuroides), ryegrass, Italian (Italian ryegrass, Lolium multiflorum), wheat (winter wheat, Triticum aestivum), galium (catchweed bedstraw, Galium aparine), corn (Zea mays), crabgrass, large (large crabgrass, Digitaria sanguinalis), foxtail, giant (giant foxtail, Setaria faberii), johnsongrass (Sorghum halepense), lambsquarters (Chenopodium album), morningglory (Ipomoea coccinea), nutsedge, yellow (yellow nutsedge, Cyperus esculentus), pigweed (redroot pigweed, Amaranthus retroflexus), ragweed (common ragweed, Ambrosia elation), soybean (Glycine max), barnyardgrass (Echinochloa crus-galli), oilseed rape (Brassica napus), waterhemp (common waterhemp, Amaranthus rudis), oat, wild (wild oat, Avena fatua), kochia (Kochia scoparia), Surinam grass (Brachiaria decumbens), foxtail, green (green foxtail, Setaria viridis), goosegrass (Eleusine indica), bromegrass, downy (downy bromegrass, Bromus tectorum), nightshade (eastern black nightshade, Solanum ptycanthum), cocklebur (common cocklebur, Xanthium strumarium), cupgrass, woolly (woolly cupgrass, Eriochloa villosa), bermudagrass (Cynodon dactylon), sunflower, (common oilseed sunflower, Helianthus annuus), Russian thistle (Salsola kali), and velvetleaf (Abutilon theophrasti) were planted into a blend of loam soil and sand and treated preemergence with test chemicals formulated in a non-phytotoxic solvent mixture which included a surfactant.
(§2) At the same time, plants selected from these crop and weed species and also chickweed (common chickweed, Stellaria media), canarygrass (littleseed canarygrass, Phalaris minor), and deadnettle (henbit deadnettle, Lamium amplexicaule), were planted in pots containing Redi-Earth® planting medium (Scotts Company, 14111 Scottslawn Road, Marysville, Ohio 43041) comprising spaghnum peat moss, vermiculite, wetting agent and starter nutrients and treated with postemergence applications of test chemicals formulated in the same manner. Plants ranged in height from 2 to 18 cm (1- to 4-leaf stage) for postemergence treatments. Treated plants and controls were maintained in a greenhouse for 13 to 15 days, after which time all species were compared to controls and visually evaluated. Plant response ratings, summarized in Table C, are based on a scale of 0 to 100 where 0 is no effect and 100 is complete control. A dash (-) response means no test result.

[2] = system: wheat; assay: Test A postemergence; format: in vivo, Triticum aestivum
Outline: (§3)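 Greenhouse test in loam soil/sand blend; compounds formulated in non-phytotoxic solvent with surfactant, applied as preemergence directed soil spray or postemergence to plants 2–10 cm tall at one- to two-leaf stage. Injury rated visually versus untreated controls after approximately 10 days on a 0 (no effect) to 100 (complete control) scale.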

[3] = system: blackgrass; assay: Test C postemergence; format: in vivo, Alopecurus myosuroides; conditions: for Blackgrass plant response rating: scale 0 to 100
From the text: as §1, §2

[4] = system: nutsedge, yellow; assay: Test C postemergence; format: in vivo, Cyperus esculentus; conditions: for Nutsedge, Yellow plant response rating: scale 0 to 100
From the text: as §1, §2

[5] = system: crabgrass, large; assay: Test C postemergence; format: in vivo, Digitaria sanguinalis; conditions: for Crabgrass, Large plant response rating: scale 0 to 100
From the text: as §1, §2

[6] = system: wheat; assay: Test A preemergence; format: in vivo, Triticum aestivum
Outline: as §3

[7] = system: pigweed; assay: Test A preemergence; format: in vivo, Amaranthus retroflexus
Outline: as §3

[8] = system: foxtail, giant; assay: Test A preemergence; format: in vivo, Setaria faberii
Outline: as §3

[9] = system: johnsongrass; assay: Test C preemergence; format: in vivo, Sorghum halepense; conditions: for Plant response rating (scale of 0 to 100), Johnsongrass: 250 g ai/ha
From the text: as §1, §2

[10] = system: lambsquarters; assay: Test C preemergence; format: in vivo, Chenopodium album; conditions: for Plant response rating (scale of 0 to 100), Lambsquarters: 250 g ai/ha
From the text: as §1, §2

[11] = system: foxtail, giant; assay: Test C preemergence; format: in vivo, Setaria faberii; conditions: for Plant response rating (scale of 0 to 100), Foxtail, Giant: 250 g ai/ha
From the text: as §1, §2

[12] = system: rice; assay: Test B flood; format: in vivo, Oryza sativa; conditions: 250 g ai/ha, visual rating on 0 to 100 scale (0 no effect, 100 complete control), 13 to 15 days
Outline: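 Greenhouse assay lasting 13 to 15 days. Treatment was into water flooding pots 3 cm deep, at the 2-leaf stage, with that level sustained afterwards. Scores compare treated with control plants visually, 100 denoting complete control and 0 no effect; a dash marks no test result.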

[13] = 250 g ai/ha, scale 0 to 100 (0 no effect, 100 complete control)
[14] = 125 g ai/ha, scale 0 to 100, 0 no effect, 100 complete control
[15] = Postemergence, 1000 g ai/ha, visual rating after approx. 10 days, 0 to 100 scale (0 no effect, 100 complete control)
[16] = postemergence, 250 g ai/ha, scale 0 to 100 (0 no effect, 100 complete control)
[17] = postemergence, 62 g ai/ha, scale 0 to 100, 0 no effect, 100 complete control
[18] = postemergence, 125 g ai/ha, scale 0 to 100, 0 no effect, 100 complete control
[19] = Preemergence, 1000 g ai/ha, 0 to 100 scale, 0 no effect, 100 complete control
[20] = Postemergence, 500 g ai/ha, visual rating after approx. 10 days, 0 to 100 scale (0 no effect, 100 complete control)
[21] = postemergence, 125 g ai/ha, about 10 days, visual rating on 0 to 100 scale (0 no effect, 100 complete control)
[22] = preemergence, 31 g ai/ha, scale 0 to 100 (0 no effect, 100 complete control), 13 to 15 days
[23] = preemergence, 62 g ai/ha, 13 to 15 days, scale 0 to 100, 0 = no effect, 100 = complete control
[24] = preemergence, 125 g ai/ha, scale 0 to 100, 0 is no effect, 100 is complete control
[25] = preemergence, 125 g ai/ha, visual injury, 0 to 100 scale, approx. 10 days
[26] = preemergence, 500 g ai/ha, visual injury after approx. 10 days, 0 to 100 scale (0 no effect, 100 complete control)
[27] = Preemergence, 500 g ai/ha, 0 to 100 scale, 0 no effect, 100 complete control
[28] = Preemergence, 4 g ai/ha, scale 0 to 100
[29] = Preemergence, 8 g ai/ha, scale 0 to 100
[30] = Preemergence, 16 g ai/ha, scale 0 to 100
[31] = preemergence, 31 g ai/ha, visual rating, scale 0 to 100 (0 no effect, 100 complete control), 13 to 15 days

CCc1cc(C(=O)NCC(F)(F)F)nn1Cc1cccc(OC(F)(F)F)c1 [Compound 20]
Velvetleaf plant response rating [1]: 45
Plant response rating, Velvetleaf [1, 13]: 60
Plant response rating, Velvetleaf [1, 14]: 45
Wheat plant response rating [2, 15]: 40
Blackgrass plant response rating ([3]; Postemergence, 31 g ai/ha): 5
Plant response rating, Blackgrass [3, 16]: 20
Plant response rating, Blackgrass [3, 17]: 5
Plant response rating, Blackgrass [3, 18]: 15
Nutsedge, Yellow plant response rating ([4]; Postemergence, 31 g ai/ha): 0
Plant response rating, Nutsedge, Yellow [4, 16]: 0
Plant response rating, Nutsedge, Yellow [4, 17]: 0
Plant response rating, Nutsedge, Yellow [4, 18]: 0
Crabgrass, Large plant response rating ([5]; Postemergence, 31 g ai/ha): 10
Plant response rating, Crabgrass, Large [5, 16]: 45
Plant response rating, Crabgrass, Large [5, 17]: 20
Plant response rating, Crabgrass, Large [5, 18]: 35
Wheat plant response rating [6, 19]: 20
Pigweed plant response rating [7, 19]: 100
Foxtail, Giant plant response rating [8, 19]: 100

CCCNC(=O)c1cc(CC)n(Cc2cccc(OC(F)(F)F)c2)n1 [Compound 27]
Velvetleaf plant response rating [1]: 15
Plant response rating, Velvetleaf [1, 13]: 45
Plant response rating, Velvetleaf [1, 14]: 20
Wheat plant response rating [2, 15]: 40
Blackgrass plant response rating ([3]; Postemergence, 31 g ai/ha): 10
Plant response rating, Blackgrass [3, 16]: 20
Plant response rating, Blackgrass [3, 17]: 15
Plant response rating, Blackgrass [3, 18]: 15
Nutsedge, Yellow plant response rating ([4]; Postemergence, 31 g ai/ha): 0
Plant response rating, Nutsedge, Yellow [4, 16]: 0
Plant response rating, Nutsedge, Yellow [4, 17]: 0
Plant response rating, Nutsedge, Yellow [4, 18]: 0
Crabgrass, Large plant response rating ([5]; Postemergence, 31 g ai/ha): 0
Plant response rating, Crabgrass, Large [5, 16]: 45
Plant response rating, Crabgrass, Large [5, 17]: 5
Plant response rating, Crabgrass, Large [5, 18]: 10
Wheat plant response rating [6, 19]: 20
Pigweed plant response rating [7, 19]: 90
Foxtail, Giant plant response rating [8, 19]: 90

CCc1cc(C(=O)NOC(C)C)nn1Cc1cccc(OC(F)(F)F)c1 [Compound 70]
Velvetleaf plant response rating [1]: 20
Plant response rating, Velvetleaf [1, 13]: 55
Plant response rating, Velvetleaf [1, 14]: 30
Wheat plant response rating [2, 20]: 70
Wheat plant response rating [2, 21]: 70
Blackgrass plant response rating ([3]; Postemergence, 31 g ai/ha): 0
Plant response rating, Blackgrass [3, 16]: 25
Plant response rating, Blackgrass [3, 17]: 5
Nutsedge, Yellow plant response rating ([4]; Postemergence, 31 g ai/ha): 0
Plant response rating, Nutsedge, Yellow [4, 16]: 20
Plant response rating, Nutsedge, Yellow [4, 17]: 0
Plant response rating, Nutsedge, Yellow [4, 18]: 0
Crabgrass, Large plant response rating ([5]; Postemergence, 31 g ai/ha): 5
Plant response rating, Crabgrass, Large [5, 16]: 45
Plant response rating, Crabgrass, Large [5, 17]: 10
Plant response rating, Crabgrass, Large [5, 18]: 40
Plant response rating (scale of 0 to 100), Johnsongrass ([9]; Preemergence): 95
Johnsongrass plant response rating [9, 22]: 20
Plant response rating, Johnsongrass [9, 23]: 65
Johnsongrass plant response rating [9, 24]: 80
Wheat plant response rating [6, 25]: 50
Wheat plant response rating [6, 26]: 30
Pigweed plant response rating [7, 27]: 100
Pigweed plant response rating [7, 25]: 100
Plant response rating (scale of 0 to 100), Lambsquarters ([10]; Preemergence): 100
Lambsquarters plant response rating [10, 22]: 98
Plant response rating, Lambsquarters [10, 23]: 98
Lambsquarters plant response rating [10, 24]: 100
Plant response rating (scale of 0 to 100), Foxtail, Giant ([11]; Preemergence): 98
Foxtail, Giant plant response rating [11, 22]: 65
Plant response rating, Foxtail, Giant [11, 23]: 75
Foxtail, Giant plant response rating [11, 24]: 90
Foxtail, Giant plant response rating [8, 27]: 100
Foxtail, Giant plant response rating [8, 25]: 90

CCONC(=O)c1cc(CC)n(Cc2cccc(OC(F)(F)F)c2)n1 [Compound 72]
Velvetleaf plant response rating [1]: 5
Plant response rating, Velvetleaf [1, 13]: 55
Plant response rating, Velvetleaf [1, 14]: 35
Wheat plant response rating [2, 20]: 80
Wheat plant response rating [2, 21]: 70
Blackgrass plant response rating ([3]; Postemergence, 31 g ai/ha): 5
Blackgrass plant response rating ([3]; postemergence, 62 g ai/ha): 10
Plant response rating, Blackgrass [3, 16]: 40
Plant response rating, Blackgrass [3, 18]: 40
Nutsedge, Yellow plant response rating ([4]; Postemergence, 31 g ai/ha): 0
Nutsedge, Yellow plant response rating ([4]; postemergence, 62 g ai/ha): 0
Plant response rating, Nutsedge, Yellow [4, 16]: 0
Plant response rating, Nutsedge, Yellow [4, 18]: 0
Crabgrass, Large plant response rating ([5]; Postemergence, 31 g ai/ha): 5
Crabgrass, Large plant response rating ([5]; postemergence, 62 g ai/ha): 5
Plant response rating, Crabgrass, Large [5, 16]: 25
Plant response rating, Crabgrass, Large [5, 18]: 5
Plant response rating (scale of 0 to 100), Johnsongrass ([9]; Preemergence): 75
Johnsongrass plant response rating [9, 22]: 40
Plant response rating, Johnsongrass [9, 23]: 55
Johnsongrass plant response rating [9, 24]: 65
Wheat plant response rating [6, 25]: 50
Wheat plant response rating [6, 26]: 10
Pigweed plant response rating [7, 27]: 100
Pigweed plant response rating [7, 25]: 100
Plant response rating (scale of 0 to 100), Lambsquarters ([10]; Preemergence): 100
Lambsquarters plant response rating [10, 22]: 100
Plant response rating, Lambsquarters [10, 23]: 100
Lambsquarters plant response rating [10, 24]: 100
Plant response rating (scale of 0 to 100), Foxtail, Giant ([11]; Preemergence): 100
Foxtail, Giant plant response rating [11, 22]: 65
Plant response rating, Foxtail, Giant [11, 23]: 80
Foxtail, Giant plant response rating [11, 24]: 85
Foxtail, Giant plant response rating [8, 27]: 100
Foxtail, Giant plant response rating [8, 25]: 70

CCOc1cc(C(=O)NCC(F)(F)F)nn1Cc1cc(C(F)(F)F)nn1C [Compound 140]
Wheat plant response rating ([2]; Postemergence, 500 g ai/ha, 0 to 100 scale (0 no effect, 100 complete control)): 70
Wheat plant response rating [2, 21]: 40
Plant response rating, Rice [12]: 40
Plant response rating, Johnsongrass [9, 28]: 20
Plant response rating, Johnsongrass [9, 29]: 5
Plant response rating, Johnsongrass [9, 30]: 5
Johnsongrass plant response rating [9, 31]: 25
Wheat plant response rating [6, 25]: 70
Wheat plant response rating [6, 26]: 100
Pigweed plant response rating [7, 25]: 100
Pigweed plant response rating [7, 26]: 100
Plant response rating, Lambsquarters [10, 28]: 5
Plant response rating, Lambsquarters [10, 29]: 55
Plant response rating, Lambsquarters [10, 30]: 40
Lambsquarters plant response rating [10, 31]: 75
Plant response rating, Foxtail, Giant [11, 28]: 20
Plant response rating, Foxtail, Giant [11, 29]: 40
Plant response rating, Foxtail, Giant [11, 30]: 75
Foxtail, Giant plant response rating [11, 31]: 70
Foxtail, Giant plant response rating [8, 25]: 100
Foxtail, Giant plant response rating [8, 26]: 100
